Read-outs that look alike come from different tables or passages of the source.
Assays:
[1] = tested on: patients with lung diseases including COPD; experiment: Comparison of inhaled salts of pyruvate, 5 ml of 0.5 mM solution (Table I); conditions: for FEV1: 5 mls of a 0.5 mM pyruvate inhalation solution in COPD and asthmatic patients
Experimental: All previous studies using pyruvate to treat Allergic Rhinitis, Asthmatic and COPD patients used only the sodium salt form of pyruvic acid in saline. The drug products that were tested in the six Phase I/II clinical trial were differing concentrations of sodium pyruvate dissolved in 0.9% sodium chloride solution (Saline). These drug products contained 0.5 mM, 1.5 mM, or 5.0 mM of sodium pyruvate in physiological saline. They were administered to normal volunteers and COPD and asthmatics by inhalation therapy. […] Various sodium pyruvate solutions were evaluated in the lungs for their ability to enhance FEV1 values and reduce coughing, and lung tightness.
The amount of the salts delivered in the 5 ml's of the 0.5 mM pyruvate solutions were compared to the amounts of the salts in 5 ml's of human blood. […] When ethyl pyruvate reacts with oxygen radical like hydrogen peroxide, it is converted to ethane and alcohol and Co2 and acetate. Ethane and alcohol are lung irritants.
This formula can also be made by adding 3% calcium phosphate or dicalcium phosphate to the standard 0.5 mM to 30 mM sodium pyruvate saline solution see Table I.

[2] = tested on: patients with sinus & lung diseases including IPF and COPD; experiment: Salts of pyruvate as 20 mM nasal sprays (Table IX)
Description: They never tested the individual salts for their ability to reduce inflammation or increase lung functions.

[3] = tested on: patients with lung diseases including COPD; experiment: Comparison of inhaled salts of pyruvate, 5 ml of 5 mM solution (Table II)
non-cancerous cells = experiment: Viable non-cancerous cells after incubation with anticancer drugs in various media (Table VIII); type: cell-based; design: viability: concentration or dose not given beside the values; conditions: for Percentage of viable cells after incubation with drugs: drug alone
Experimental: (§1) Peripheral blood monocytes and U937 monocytic leukemia tumor cells were placed in sterile culture flasks and maintained in culture using Dulbecco's Minimal Essential Medium, with 10% fetal calf serum, supplemented with 2 mM glutamine and Pen/Strep. The cytotoxicity of the cytotoxic agent on the cells was analyzed by propidium iodide exclusion techniques and flow cytometric quantitation. Viability of the cells was quantified as the number of cells that excluded the vital dye trypan blue. Sodium pyruvate was dissolved in distilled water and the solution was adjusted to pH 7.4 with calcium, phosphate and magnesium. Solutions were sterile filtered. Stock solutions were prepared so that the vehicle would not be more than 1% of the total volume of the culture media. H-Thymidine Radiosotopic Incorporation Measurement of Cytotoxity. The membrane surfactant enhancers agents (sodium pyruvate and calcium, phosphate and magnesium), was examined for their ability to decrease the Cytotoxity of Doxorubicin to U937 monocytic leukemia cells and normal peripheral blood monocytes. […] Susceptibility studies were conducted to determine the optimal treatment time of the cells with the […] agents prior to treatment of the cells with the cytotoxic agent. The normal cells and U937 leukemic tumor cells were pretreated separately in “wash out” studies with the single agents alone, and in combination, at the optimal concentration described above for various time periods, washed with fresh medium to remove the agents, and treated with the cytotoxic agent. The co-culture of normal and U937 leukemic […] cells was treated essentially in the same manner except that the cells were not treated separately, but co-cultured. […] The cells were then placed in culture medium without the protective agents. […] Normal and U937 tumor cells were co-cultured and the Cytotoxity of Doxorubicin on the cells was determined by viability assays which examined the differential ability of the cytoprotective compositions alone, and in combinations, to protect the normal cells from the Cytotoxity of the chemotherapeutic agent. The cells were isolated and examined for morphological evidence of cytotoxicity or prevention of cytotoxicity. […] DNA synthesis studies using 3Hthymidine (1 uCi/well) were carried out 4 hours prior to termination of the experiment to determine the effect of the formulations on the proliferation of the cells as a measure of the prevention of cytotoxicity and the extent of Doxorubicin-induced cytotoxicity. Propidium iodide exclusion analysis was carried out for direct quantitation of the cytotoxicity and the prevention of cytotoxicity. Each set of studies was performed in triplicate so that statistical analysis of the significant differences between the treatment groups could be conducted. […] Wash-out studies were conducted to determine viability of the peripheral blood monocytes co-cultured with U937 monocytic leukemia cells after 24 hour pretreatment of the cells with the surfactant enhancer, which is also a mitochondrial protective agent, followed by administration of Doxorubicin.

[4] = as above; type: cell-based; design: viability: concentration or dose not given beside the values; conditions: non-cancerous cells (normal peripheral blood monocytes)
Experimental: as §1

[5] = 5 ml of 0.5 mM solution in physiological saline, inhaled
[6] = 5 ml of 0.5 mM solution, inhaled
[7] = 5 ml of 0.5 mM solution, 1 most negative, 10 best
[8] = 5 mls of a 0.5 mM inhalation solution
[9] = 20 mM (0.22%) nasal spray in 0.9% sodium chloride
[10] = 20 mM (0.22%) nasal spray, 1 most negative, 10 best
[11] = 5 ml of 5 mM solution in saline, inhaled
[12] = 5 ml of 5 mM solution, 1 most negative, 10 best
[13] = Drugs in commercial formula with sodium chloride only
[14] = Drugs in commercial formula with sodium pyruvate with calcium & phosphate & Magnesium ions repeat study
[15] = Drugs in commercial formula with sodium pyruvate with calcium & phosphate & magnesium ions
[16] = Drugs in commercial formula with sodium pyruvate without calcium & phosphate & magnesium

| Compound | Increased in FEV-1% lung function [1, 5] [%] | Irritation [1, 6] | Percentage Increase in SaO2 over baseline [1, 6] | Percentage decrease or increase of Nitric Oxide over baseline [1, 6] | Relief of congestion, coughing and lung tightness [1, 6] | Overall Rating 1-10 [1, 7] | reduction of nitric oxide [1, 8] | Overall Rating 1-10 [2, 10] | Increased in FEV-1% [3, 11] [%] | Irritation ([3]; 5 ml of 5 mM solution, inhaled) | Percentage Increase in SaO2 over baseline ([3]; 5 ml of 5 mM solution, inhaled) | Percentage increase of Nitric Oxide over baseline ([3]; 5 ml of 5 mM solution, inhaled) [%] | Relief of congestion, coughing and lung tightness ([3]; 5 ml of 5 mM solution, inhaled) | Overall Rating 1-10 [3, 12] | Percentage of viable non-cancerous cells (non-cancerous cells; [13]) [%] | Percentage of viable cells after incubation with drugs (non-cancerous cells) [%] | Increased in FEV-1% ([2]; in vivo) [%] | Percentage Increase in SaO2 over baseline ([2]; in vivo) | Percentage increase of Nitric Oxide over baseline ([2]; in vivo) [%] | Relief of congestion, coughing and lung tightness ([2]; in vivo) | other results |
| --- | --- | --- | --- | --- | --- | --- | --- | --- | --- | --- | --- | --- | --- | --- | --- | --- | --- | --- | --- | --- | --- |
| CC(=O)C(=O)O.N [Ammonium, ammonium pyruvate] | 0 | Yes | No | +5.0% | 1 | 1 | did not reduce nitric oxide | 1 | 0 | Yes | No | 35.0 | 1 | 1 |  |  |  |  |  |  | irritation in the nasal cavities compared with the lungs ([1]; evaluated in the nasal cavities): even more irritating; Irritation ([1]; inhaled into the lungs): irritating; Increased in FEV-1% [2, 9]: 0.0%; Irritation [2, 9]: Yes; Percentage Increase in SaO2 over baseline [2, 9]: No; Percentage increase of Nitric Oxide over baseline [2, 9]: 00.0%; Relief of congestion, coughing and lung tightness [2, 9]: 1 |
| N.N.O=C([O-])C1(C(=O)[O-])CCC1.[Pt+2] [Carboplatin] |  |  |  |  |  |  |  |  |  |  |  |  |  |  | 50 | 42 |  |  |  |  | Percentage of viable non-cancerous cells (non-cancerous cells; [14]): 97% |
| O=P(O)(O)O [Potassium Phosphate, reference compound] |  |  |  |  |  |  |  |  |  |  |  |  |  |  |  |  | 0.0 | No | 0 | 4 | Increased in FEV-1% lung function ([1]; in vivo): 0%; Overall Rating 1-10 ([1]; in vivo): 3; Percentage Increase in SaO2 over baseline ([1]; in vivo): No; Percentage decrease or increase of Nitric Oxide over baseline ([1]; in vivo): 0%; Relief of congestion, coughing and lung tightness ([1]; in vivo): 4; Overall Rating 1-10 ([2]; in vivo): 3; Increased in FEV-1% ([3]; in vivo): 0%; Overall Rating 1-10 ([3]; in vivo): 3; Percentage Increase in SaO2 over baseline ([3]; in vivo): No; Percentage increase of Nitric Oxide over baseline ([3]; in vivo): 0%; Relief of congestion, coughing and lung tightness ([3]; in vivo): 4 |
| CC(=O)C(=O)[O-].[K+] [Potassium, potassium pyruvate] | 8.0 | None | no | −14% | 5 | 7 |  | 6 | 2.1 | None | no | 25.0 | 5 | 7 |  |  | 6.1 | no | 10.0 | 5 | FEV1 [1]: lower FEV1 results; Irritation ([2]; in vivo): None |
| CC(C)(C#N)c1cc(Cn2cncn2)cc(C(C)(C)C#N)c1 [anastrozole] |  |  |  |  |  |  |  |  |  |  |  |  |  |  |  |  |  |  |  |  | viability ([4]; Drugs in commercial formula with sodium chloride only, read-out: Percentage of viable non-cancerous cells): 25%; viability ([4]; Drugs in commercial formula with sodium pyruvate with calcium & phosphate & Magnesium ions repeat study, read-out: Percentage of viable non-cancerous cells): 94%; viability ([4]; Drugs in commercial formula with sodium pyruvate with calcium & phosphate & magnesium ions, read-out: Percentage of viable non-cancerous cells): 86%; viability ([4]; Drugs in commercial formula with sodium pyruvate without calcium & phosphate & magnesium, read-out: Percentage of viable non-cancerous cells): 50%; viability ([4]; drug alone, read-out: Percentage of viable cells after incubation with drugs): 24% |
| O=C1[O][Pt]2([NH][C@@H]3CCCC[C@H]3[NH]2)[O]C1=O [oxaliplatin] |  |  |  |  |  |  |  |  |  |  |  |  |  |  | 24 | 23 |  |  |  |  | Percentage of viable non-cancerous cells (non-cancerous cells; [14]): 98%; Percentage of viable non-cancerous cells (non-cancerous cells; [15]): 95%; Percentage of viable non-cancerous cells (non-cancerous cells; [16]): 41% |
| Bevacizumab |  |  |  |  |  |  |  |  |  |  |  |  |  |  | 27 | 21 |  |  |  |  | Percentage of viable non-cancerous cells (non-cancerous cells; [16]): 40% |
| Bleomycin |  |  |  |  |  |  |  |  |  |  |  |  |  |  | 33 | 31 |  |  |  |  | Percentage of viable non-cancerous cells (non-cancerous cells; [14]): 98%; Percentage of viable non-cancerous cells (non-cancerous cells; [15]): 98%; Percentage of viable non-cancerous cells (non-cancerous cells; [16]): 47% |
| aluminum pyruvate | 0 |  | No | +8.0% | 1 | 3 | did not reduce nitric oxide | 1 | 0 |  | No | 15.0 | 1 | 4 |  |  |  |  |  |  | Increased in FEV-1% [2, 9]: 0.0%; Percentage Increase in SaO2 over baseline [2, 9]: No; Percentage increase of Nitric Oxide over baseline [2, 9]: 00.0%; Relief of congestion, coughing and lung tightness [2, 9]: 1 |
| calcium pyruvate | 10.0 | None | no | −18% | 5 | 7 |  | 7 | 1.0 | None | 1% | 17.0 | 5 | 7 |  |  | 7.0 | 1% | 17.0 | 5 | FEV1 [1]: 10%; Irritation ([2]; in vivo): None |
| manganese pyruvate | 3.0 |  | No | −2.0% | 4 | 3 | did not reduce nitric oxide | 3 | 3.0 |  | No | 25.0 | 4 | 3 |  |  |  |  |  |  | Increased in FEV-1% [2, 9]: 0.0%; Percentage Increase in SaO2 over baseline [2, 9]: No; Percentage increase of Nitric Oxide over baseline [2, 9]: 2.0%; Relief of congestion, coughing and lung tightness [2, 9]: 4 |
| zinc pyruvate | 8.0 | Yes | No | +10% | 4 | 4 | did not reduce nitric oxide | 3 | 1.0 | Yes | No | 22.0 | 4 | 3 |  |  | 1.0 | No | 2.0 | 4 | increased nitric oxide levels [1, 8]: 10%; Irritation ([1]; inhaled into the lungs): irritating; Irritation ([2]; in vivo): Yes |

Reference: patent US11628186B2, “Method and composition for the reduction of viral replication, duration and spread of the COVID-19 and the flu” (priority 2017, dated 2023)
